From patent publication US20230115945A1, “AMINOPYRIMIDINE COMPOUNDS” (TYRA BIOSCIENCES, INC., priority 2019, published 2023)

Legend:
FGFR3 = target: T1, FGFR3 (Homo sapiens, UniProt P22607); test: Kinase binding assay (Kd), FGFR3; details: 11-point 3-fold dilution, qPCR readout
T1 construct: made in house; host or cells: E. coli host derived from BL21, infected with T7 phage
Outline: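 Kinase levels in bead eluates were read by qPCR after test compounds competed with an immobilized affinity ligand for T7 phage-expressed kinase. Binding ran 1 h at room temperature, and Kd values were fitted from 11-point dose–response curves with Hill slope set to −1.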

[1] = target: T2, FGFR3-BAIAP2L1 Ba/F3 cells (Homo sapiens, UniProt P22607); test: Ba/F3 cell viability assay, FGFR3; assay type: cell-based; details: FGFR3-BAIAP2L1 fusion Ba/F3, 48 hours, Cell Titer-Glo 2.0; read-out: Ba/F3 Cells FGFR3 (IC50 nM)
T2 construct: Ba/F3 FGFR3; FGFR3--BAIAP2L1 fusion; Advanced Cellular Dynamics, (Seattle, WA); fused on or other part: Q9UHR4 (BAR/IMD domain-containing adapter protein 2-like 1)
T2 sequence (P22607 whole entry, change not shown, the tested form may be a part): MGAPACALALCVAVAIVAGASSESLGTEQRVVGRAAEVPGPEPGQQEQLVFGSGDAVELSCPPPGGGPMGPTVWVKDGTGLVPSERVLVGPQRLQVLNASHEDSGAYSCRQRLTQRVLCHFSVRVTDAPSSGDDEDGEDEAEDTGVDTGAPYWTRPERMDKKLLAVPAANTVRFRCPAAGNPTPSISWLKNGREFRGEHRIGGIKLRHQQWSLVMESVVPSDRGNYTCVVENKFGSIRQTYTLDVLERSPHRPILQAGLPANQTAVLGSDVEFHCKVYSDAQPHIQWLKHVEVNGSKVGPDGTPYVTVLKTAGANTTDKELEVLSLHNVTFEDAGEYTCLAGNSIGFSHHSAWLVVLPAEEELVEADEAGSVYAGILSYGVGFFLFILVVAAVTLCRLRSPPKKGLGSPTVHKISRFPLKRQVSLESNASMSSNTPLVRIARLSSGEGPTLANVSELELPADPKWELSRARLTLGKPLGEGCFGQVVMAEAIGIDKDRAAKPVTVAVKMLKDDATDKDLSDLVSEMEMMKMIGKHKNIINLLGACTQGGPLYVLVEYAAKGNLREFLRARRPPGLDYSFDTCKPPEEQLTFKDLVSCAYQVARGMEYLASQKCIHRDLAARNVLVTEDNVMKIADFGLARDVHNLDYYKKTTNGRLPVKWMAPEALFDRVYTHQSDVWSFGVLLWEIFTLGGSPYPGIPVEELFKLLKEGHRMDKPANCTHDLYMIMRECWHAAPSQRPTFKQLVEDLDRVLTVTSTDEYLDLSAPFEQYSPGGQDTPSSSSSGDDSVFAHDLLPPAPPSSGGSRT
Text: Experimental Purpose: Recombinant kinase fusions are transduced into parental Ba/F3, which becomes dependent upon this constitutive kinase activity for IL3-independent survival. Inhibition of kinase activity leads to cell death, which is monitored using CellTiter-Glo® 2.0 (Promega) which measures intracellular ATP concentration that in turn serves as a marker for viability. FGFR1-BCR Ba/F3 and FGFR3-BAIAP2L1 Ba/F3 were obtained from Advanced Cellular Dynamics (Seattle, Wash.)
Cell Viability Assay Procedure: Cell Titer-Glo® 2.0 Luminescent cell viability assay reagent was purchased from Promega (Madison, Wis.). FGFR1-BCR Ba/F3 and FGFR3-BAIAP2L1 Ba/F3 cells were cultured in RPMI1640 media supplemented with 10% fetal bovine serum. Cultures were maintained at 37° C. in a humidified atmosphere of 5% CO2 and 95% air.
Cells were plated in 96-well clear bottom/white plates (Corning #3903) at 10,000 cells/well in 100 μl of media, incubated overnight. The next day, test compound DMSO stock solutions were made at 10 mM and 2 μM final concentration. Compounds were then added to cells in a 9-dose, 10-fold dilution series starting at 30 μM with an HP 300e Digital Dispenser (each dose was applied in triplicate). DMSO was backfilled to each well up to 301 nL total volume of test compound+DMSO, and a total of 301 nL DMSO was added to a control/no test compound well in triplicate. The cells in cell culture plates were incubated with the compounds at 37° C. and 5% CO2 for 48 hours. Then 50 μl of Cell Titer Glo 2.0 reagent was added to each well of the cell culture plates. The contents were covered from light and mixed on an orbital shaker at room temperature for 10 min. Luminescence was recorded by a Synergy H1 Microplate Reader (Biotek, Winooski, Vt.). Cells were assessed as a percentage of DMSO only treated control cells. Curves were plotted and IC50 values were calculated using the GraphPad Prism 8 program based on a sigmoidal dose-response equation (4 parameter).

[2] = test system: RT112/84 cells (Bladder Cancer, FGFR3-TACC3 fusion); test: Cancer cell line cell viability assay, RT112/84; assay type: cell-based; details: Homo sapiens, 72 hours, Cell Titer-Glo 2.0, read-out: Cancer Cell Viability Assays RT112/84 (IC50 nM)
Text: [table] To detect the change of intracellular ATP by Cell Titer-Glo® and to evaluate the inhibitory effect of the compounds on cancer cell lines by determining the in vitro IC50 value of the compounds. Cell Titer-Glo® 2.0 Luminescent cell viability assay reagent was purchased from Promega (Madison, Wis.). RT112/84, SNU-16, and KG-1 cell lines were purchased from American Type Culture Collection (Manassas, Va.). UM-UC-14 cell line was purchased from Sigma (St. Louis, Mo.). RT112/84, UM-UC-14, SNU-16, and KG-1 cells were cultured in RPMI1640 media supplemented with 10% fetal bovine serum. Cultures were maintained at 37° C. in a humidified atmosphere of 5% CO2 and 95% air. Cell Viability Assay Procedure: Cells were plated in 96-well clear bottom/white plates (Corning #3903) at 10,000 cells/well in 100 μl of media, incubated overnight. The next day, test compound DMSO stock solutions were made at 10 mM and 2 μM final concentration. Compounds were then added to cells in a 9-dose, […] dilution series starting at 30 μM with an HP 300e Digital Dispenser (each dose was applied in triplicate). DMSO was backfilled to each well up to 301 nL total volume of test compound+DMSO, and a total of 301 nL DMSO was added to a control/no test compound well in triplicate. The cells in cell culture plates were incubated with the compounds at 37° C. and 5% CO2 for 72 hours. Then 50 μl of Cell Titer Glo 2.0 reagent was added to each well of the cell culture plates. The contents were covered from light and mixed on an orbital shaker at room temperature for 10 min. Luminescence was recorded by a Synergy H1 Microplate Reader (Biotek, Winooski, Vt.). Cells were assessed as a percentage of DMSO only treated control cells. Curves were plotted and IC50 values were calculated using the GraphPad Prism 8 program based on a sigmoidal dose-response equation (4 parameter).

T1 sequence (P22607 23-806): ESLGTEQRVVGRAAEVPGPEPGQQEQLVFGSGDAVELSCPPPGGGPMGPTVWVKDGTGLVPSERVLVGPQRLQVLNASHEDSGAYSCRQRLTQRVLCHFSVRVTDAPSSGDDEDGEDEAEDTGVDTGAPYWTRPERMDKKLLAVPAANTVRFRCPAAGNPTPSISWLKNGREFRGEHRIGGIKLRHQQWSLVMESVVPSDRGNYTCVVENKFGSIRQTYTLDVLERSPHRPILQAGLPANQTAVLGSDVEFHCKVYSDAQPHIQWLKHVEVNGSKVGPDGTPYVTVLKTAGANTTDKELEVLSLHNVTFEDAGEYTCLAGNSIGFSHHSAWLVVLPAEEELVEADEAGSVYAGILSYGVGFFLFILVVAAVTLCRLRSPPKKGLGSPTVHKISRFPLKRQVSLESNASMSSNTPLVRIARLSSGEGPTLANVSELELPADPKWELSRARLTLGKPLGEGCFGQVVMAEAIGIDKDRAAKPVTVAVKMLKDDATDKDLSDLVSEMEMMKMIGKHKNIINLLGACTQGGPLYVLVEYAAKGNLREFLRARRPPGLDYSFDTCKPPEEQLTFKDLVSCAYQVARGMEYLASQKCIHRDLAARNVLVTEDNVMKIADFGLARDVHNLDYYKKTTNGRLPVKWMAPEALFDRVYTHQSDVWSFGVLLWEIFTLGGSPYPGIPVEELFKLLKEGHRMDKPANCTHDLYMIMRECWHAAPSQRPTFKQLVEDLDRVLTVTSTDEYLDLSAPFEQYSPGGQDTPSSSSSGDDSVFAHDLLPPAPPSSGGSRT

Kd (FGFR3) | IC50 [2] | Structure (SMILES) | GI50 [1]
3.5 nM | 16 nM | C=CC(=O)Nc1ccc2c(c1)c(C)cn2-c1nc(Nc2ccc(N=S(C)(C)=O)c(F)c2)ncc1Cl [Example 60, N-[1-[5-Chloro-2-[4-[[dimethyl(oxo)-λ^6-sulfanylidene]amino]-3-fluoro-anilino]pyrimidin-4-yl]-3-methyl-indol-5-yl]prop-2-enamide] | 10 nM
6 nM | 23 nM | C=CC(=O)Nc1ccc2c(c1)c(C)cn2-c1nc(Nc2ccc(N=S(C)(C)=O)cc2)ncc1Cl [Example 61, N-[1-[5-Chloro-2-[4-[[dimethyl(oxo)-λ^6-sulfanylidene]amino]anilino]pyrimidin-4-yl]-3-methyl-indol-5-yl]prop-2-enamide] | 15 nM
20 nM | 64 nM | C=CC(=O)Nc1ccc2c(c1)c(C)cn2-c1nc(Nc2ccc(N=S(C)(C)=O)c(F)c2)ncc1C#N [Example 62, N-[1-[5-Cyano-2-[4-[[dimethyl(oxo)-λ^6-sulfanylidene]amino]-3-fluoro-anilino]pyrimidin-4-yl]-3-methyl-indol-5-yl]prop-2-enamide] | 46 nM
3 nM | 8 nM | C=CC(=O)Nc1ccc2c(c1)c(C)cn2-c1nc(Nc2ccc(N=S(C)(C)=O)c(F)c2)ncc1C [Example 63, N-[1-[2-[4-[[dimethyl(oxo)-λ^6-sulfanylidene]amino]-3-fluoro-anilino]-5-methyl-pyrimidin-4-yl]-3-methyl-indol-5-yl]prop-2-enamide] | 5 nM
4 nM | 12 nM | C=CC(=O)Nc1ccc2c(c1)c(C)cn2-c1nc(Nc2ccc(N=S(C)(C)=O)c(OC)c2)ncc1Cl [Example 64, N-[1-[5-Chloro-2-[4-[[dimethyl(oxo)-λ^6-sulfanylidene]amino]-3-methoxy-anilino]pyrimidin-4-yl]-3-methyl-indol-5-yl]prop-2-enamide] | 12 nM
21 nM | 113 nM | C=CC(=O)Nc1ccc2c(ccn2-c2nc(Nc3ccc(N=S(C)(C)=O)cc3)ncc2Cl)c1 [Example 66, N-[1-[5-chloro-2-[4-[[dimethyl(oxo)-λ^6-sulfanylidene]amino]anilino]-pyrimidin-4-yl]indol-5-yl]prop-2-enamide] | 28 nM
21 nM | 159 nM | C=CC(=O)Nc1ccc2c(ccn2-c2nc(Nc3ccc(S(C)(=N)=O)cc3)ncc2Cl)c1 (stereo not drawn) [Example 70, N-[1-[5-Chloro-2-[4-(methylsulfonimidoyl)anilino]-pyrimidin-4-yl]indol-5-yl]prop-2-enamide] | 34 nM
12 nM | 47 nM | C=CC(=O)Nc1ccc2c(-c3nc(Nc4ccc(N=S(C)(C)=O)cc4)ncc3Cl)cn(C)c2c1 [Example 92, N-[3-[5-chloro-2-[4-[[dimethyl(oxo)-λ^6-sulfanylidene]amino]anilino]pyrimidin-4-yl]-1-methyl-indol-6-yl]prop-2-enamide] | 15 nM
